Experimental data: patent publication US7407753B2, “Methods, kits and pharmaceutical compositions for diagnosing, delaying onset of, preventing and/or treating osteoporosis” (priority 2004, dated 2008)

Legend:
[1] = system: diaphyseal bone marrow derived stromal cells; assay: cell count of bone marrow derived stromal cells (preosteoblasts) challenged with ligand; assay type: cell-based, mouse; conditions: cells grown for 10 days in osteogenic medium; 48 hours incubation with ligand; FIG. 1f
Method: (§1) Cell cultures and mRNA analysis—Osteoclastogenic cultures of monocytes derived from femora and tibiae of WT C57BL/6J mice were set as previously reported (Zou, W., et al., 2002. FASEB J. 16: 274-282). After separation and prior to RNA extraction or cell counts the cells were cultured for 5 days in medium containing M-CSF and RANKL (R&D Systems Inc. Minneapolis, Minn.). Primary bone marrow stromal cell cultures from femoral diaphyseal bone marrow and the MC3T3 E1 cells were cultured as reported previously (Frenkel, B., et al., 1997. Endocrinology 138: 2109-2116; Bab, I., et al., 1992. EMBO J. 11: 1867-1873). The cells were grown in osteogenic medium containing ascorbic acid, β-glycerophophate and dexamethasone (Frenkel, B., et al., 1997. Endocrinology 138: 2109-2116).
(§2) In the cell count experiments, ligands were dissolved in dimethylsulfoxide and further diluted to their final concentration using tissue culture medium. For osteoclast counts the cultures were fixed in ethanol and TRAP-stained. […] The cells were then serum starved for 2 hours followed by 48 hours incubation in (α-MEM supplemented with 4% BSA and ligand. Cells were separated using chondroitinase and trypsin (Krebsbach, P. H., et al., 1998. Transplantation 66, 1272-1278) and counted with a hemocytometer in triplicate wells per condition.

[2] = system: bone marrow derived osteoclastic cell system; assay: count of TRAP-positive multinucleated osteoclasts in primary osteoclastogenic monocyte culture; assay type: cell-based, mouse; conditions: osteoclastogenic monocyte culture with M-CSF and RANKL; FIG. 1g
Method: as §1, §2

[3] = system: OVX mice; assay: ovariectomy (OVX)-induced femoral bone loss in sexually mature mice; assay type: in vivo, mouse; conditions: C3H OVX mice, 10 mg/Kg/day subcutaneously for 4 weeks from time of operation; FIGS. 4a-g
Method: Ovariectomy (OVX) mice—C3H mice (Harlan, Israel) were subjected to an ovariectomy procedure. HU-308 was synthesized as described before [Hanus, L., et al. HU-308: a specific agonist for CB(2), a peripheral cannabinoid receptor. Proc. Natl. Acad. Sci. U.S.A. 96: 14228-142-33 (1999)] and was daily injected once subcutaneously as an ethanol/emulphor/saline (1:1:18) solution.
All reported animals received calcein flurochrome (Sigma), 15 mg/Kg intraperitoneally four days and one day prior to sacrifice. […]
Micro-computed tomography (μCT)—Whole femora were examined by μCT 40 (Scanco Medical, Bassersdorf, Switzerland). […] Trabecular bone parameters were measured in a metaphyseal segment, extending proximally from the proximal tip of the primary spongiosa to the proximal border of the distal femoral quartile. Cortical bone parameters were determined in a diaphyseal segment extending 1.12 mm distally from the midpoint between the femoral ends.
Histomorphometry and immunohistochemistry—After μCT image acquisition, the specimens were embedded undecalcified in Technovit 9100 (Heracus Kulzer, Wehrheim, Germany). […] Parameters were determined according to a standardized nomenclature [Parfitt, A. M., et al. Bone histomorphometry: standardization of nomenclature, symbols, and units. […]

[4] = system: tissue non-specific alkaline phosphatase (TNSALP); assay: TNSALP activity in the preosteoblastic stromal cell cultures; assay type: cell-based, mouse; conditions: preosteoblastic stromal cell culture, early differentiation stage; data not shown
Method: as §1, §2

SMILES | number of diaphyseal bone marrow derived stromal cells [1] | number of TRAP positive multinucleated cells [2] | ovariectomy (OVX)-induced femoral bone loss [3] | activity of the tissue non-specific alkaline phosphatase (TNSALP) [4]
CCCCC/C=C\C/C=C\C/C=C\C/C=C\CCCCOC(CO)CO [Noladin ether, 2-arachidonyl glyceryl ether] | no significant effect |  |  | 
CCCCCCC(C)(C)c1cc(OC)c([C@@H]2C=C(CO)[C@@H]3C[C@H]2C3(C)C)c(OC)c1 [HU-308] | potent increase | marked dose dependent decrease | attenuating | unaffected
